The values that follow come from patent US8309550B2, “Kinase inhibitors and their use as pharmaceutical agents” (Shanghai Genomics, Inc., priority 2011, dated 2012).

pIC50: −log10 of the molar value. Like-named read-outs stand apart in the source and are kept apart here. A value given as a limit tells only on which side of the number the result lay.

Data set [1] has as its target CDK9T1 (Homo sapiens, UniProt P50750). Nature of the data set: Kinase assay CDK9T1 (Table I). In kind it is biochemical. Particulars: read-out: Kinase inhibition, IC50 CDK9T1.
For data set [2], the target named is CDK9 (Homo sapiens, UniProt P50750). Nature of the data set: CDK9 inhibitory activity, kinase assays (Table III). Particulars: read-out: Target biochemical activity IC50 CDK9. The procedure: (§1) Kinase assays. The compounds were tested for their ability to inhibit kinases.
CDK9, sequence (P50750 whole entry, species assumed): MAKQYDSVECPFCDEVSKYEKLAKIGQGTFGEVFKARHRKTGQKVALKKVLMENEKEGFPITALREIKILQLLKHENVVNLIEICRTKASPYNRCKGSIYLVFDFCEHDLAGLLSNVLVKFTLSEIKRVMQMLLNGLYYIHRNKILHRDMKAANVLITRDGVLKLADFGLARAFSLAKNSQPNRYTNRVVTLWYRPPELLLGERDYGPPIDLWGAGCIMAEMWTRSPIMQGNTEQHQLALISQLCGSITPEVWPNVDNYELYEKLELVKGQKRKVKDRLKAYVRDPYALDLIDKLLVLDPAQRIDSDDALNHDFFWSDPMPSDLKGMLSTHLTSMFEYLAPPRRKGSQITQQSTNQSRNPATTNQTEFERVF
CDK9, sequence (O60563 whole entry partner, species assumed): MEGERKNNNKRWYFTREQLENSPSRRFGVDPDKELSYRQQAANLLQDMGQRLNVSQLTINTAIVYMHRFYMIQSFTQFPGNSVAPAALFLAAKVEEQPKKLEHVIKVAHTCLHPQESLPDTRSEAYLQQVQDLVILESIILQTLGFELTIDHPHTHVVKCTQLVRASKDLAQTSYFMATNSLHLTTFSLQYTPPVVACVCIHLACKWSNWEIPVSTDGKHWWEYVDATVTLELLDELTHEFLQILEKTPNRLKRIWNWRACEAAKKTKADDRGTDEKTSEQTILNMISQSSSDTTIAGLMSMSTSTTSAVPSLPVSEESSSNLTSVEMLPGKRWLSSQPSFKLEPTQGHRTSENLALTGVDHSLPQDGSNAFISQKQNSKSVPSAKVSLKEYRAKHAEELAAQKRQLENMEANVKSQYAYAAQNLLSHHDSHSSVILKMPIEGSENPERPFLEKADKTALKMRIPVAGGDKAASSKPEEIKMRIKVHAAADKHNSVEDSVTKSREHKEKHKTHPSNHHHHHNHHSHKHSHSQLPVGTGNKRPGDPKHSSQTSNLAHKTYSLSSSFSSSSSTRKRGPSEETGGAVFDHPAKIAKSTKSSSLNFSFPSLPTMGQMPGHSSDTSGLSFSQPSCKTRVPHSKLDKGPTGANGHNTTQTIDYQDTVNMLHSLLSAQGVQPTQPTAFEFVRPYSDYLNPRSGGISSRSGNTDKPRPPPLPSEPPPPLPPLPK
In data set [3] the target is CDK7 (Homo sapiens, UniProt P50613). Nature of the data set: Kinase assay CDK7 (Table III). Particulars: read-out: Target biochemical activity IC50 CDK7. The method, then:
as §1

In data set [4] the target is SRC (Homo sapiens, UniProt P12931). Nature of the data set: Kinase assay SRC (Table III). Conditions: read-out: Target biochemical activity IC50 SRC. The method, then: as §1
SRC, sequence (P12931 whole entry, species assumed): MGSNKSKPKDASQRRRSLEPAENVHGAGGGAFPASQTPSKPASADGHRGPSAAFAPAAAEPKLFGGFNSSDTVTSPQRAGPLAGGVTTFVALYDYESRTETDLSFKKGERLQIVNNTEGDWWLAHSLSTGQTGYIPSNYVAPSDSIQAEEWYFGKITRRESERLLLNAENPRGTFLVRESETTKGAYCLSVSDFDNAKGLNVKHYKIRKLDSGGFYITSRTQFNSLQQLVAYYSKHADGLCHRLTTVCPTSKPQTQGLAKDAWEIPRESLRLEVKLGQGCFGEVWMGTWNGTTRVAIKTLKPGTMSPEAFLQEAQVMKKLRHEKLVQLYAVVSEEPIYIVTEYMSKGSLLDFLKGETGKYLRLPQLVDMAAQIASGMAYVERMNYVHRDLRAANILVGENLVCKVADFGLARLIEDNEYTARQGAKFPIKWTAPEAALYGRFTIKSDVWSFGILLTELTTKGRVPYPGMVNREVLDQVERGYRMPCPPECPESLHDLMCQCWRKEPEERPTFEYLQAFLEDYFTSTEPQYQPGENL
Data set [5] has as its target T1, TSSK1 (Homo sapiens, UniProt Q9BXA7).
T1 sequence (Q9BXA7 1-367): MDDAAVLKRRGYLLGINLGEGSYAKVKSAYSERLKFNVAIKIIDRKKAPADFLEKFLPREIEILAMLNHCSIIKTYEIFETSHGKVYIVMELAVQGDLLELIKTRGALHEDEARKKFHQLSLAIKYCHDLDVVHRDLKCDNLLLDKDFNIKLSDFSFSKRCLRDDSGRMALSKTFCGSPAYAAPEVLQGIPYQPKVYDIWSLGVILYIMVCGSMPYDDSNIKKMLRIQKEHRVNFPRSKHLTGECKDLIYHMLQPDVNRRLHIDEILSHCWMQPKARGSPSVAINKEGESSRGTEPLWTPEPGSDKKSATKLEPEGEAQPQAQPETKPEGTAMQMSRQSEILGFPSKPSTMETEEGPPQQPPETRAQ
Nature of the data set: Kinase assay TSSK1 (Table III). Particulars: read-out: Target biochemical activity IC50 TSSK1. The method, then: as §1

The nature of data set [6]: Pharmacokinetic determination, rat IV/PO study. In kind it is in vivo. Particulars: for MRT inf: read-out: MRT(0-∞). The method, then: Male Sprague-Dawley rats were maintained on food and water ad libitum. They were housed in an individual ventilated caging system. The test compound at a dose of 5 mg/kg and 20 mg/kg was given i.v. and orally to SD rats respectively (3 animals per group). The appropriate quantity compound with free base (Wt.: 346.1) was accurately weighted into a tube and dissolved in NMP, vortexed to get a clear solution. 0.015N HCl in Saline was added and the solution was vortexed to yield a clear and colorless solution at 1 mg/mL for both intravenous and oral administration. The concentration of the test compound in the dosing solution was reconfirmed by HPLC method. […] Plasma samples were collected from retro-orbital puncture at pre-dose and 0.083, 0.25, 0.5, 1, 2, 4, 6, 8, and 24 hours post-dose. All samples and the dose formulation were stored at −20° C. until bioanalysis. The concentrations of the test compound in plasma were determined using a high performance liquid chromatography/mass spectrometry (HPLC/MS/MS) method.

For data set [7], the system named is lung carcinoma (H460). Nature of the data set: Inhibition of tumor growth, NCI-H460 in SCID-bg mice. In kind it is in vivo. Conditions: oral once a day. The procedure:
Tumor type: lung carcinoma (H460)
Treatment: Single PO dose for 21 days (starting at day 7 following tumor inoculation)
Endpoint: tumor volume and mean luciferase activity by Xenogen (Caliper) machine:
SCID-bg mice were implanted with NCI-H460 cells at 5×10^6 cells/mouse on Day 0. Compound 18 treatment began on Day 7. […] In model group, the vehicle was used instead of compound 18. Tumor volume and mean luciferase activity by Xenogen technology were measured once per there days.

The mark [8] stands for this setting: male, Sprague-Dawley, plasma, IV (5 mg/kg).
[9] abbreviates: male, Sprague-Dawley, plasma, PO (20 mg/kg).

CDK9T1, sequence (P50750 whole entry): as the sequence (P50750 whole entry, species assumed) above
CDK9T1, sequence (O60563 whole entry partner): as the sequence (O60563 whole entry partner, species assumed) above
CDK7, sequence (P50613 whole entry, species assumed): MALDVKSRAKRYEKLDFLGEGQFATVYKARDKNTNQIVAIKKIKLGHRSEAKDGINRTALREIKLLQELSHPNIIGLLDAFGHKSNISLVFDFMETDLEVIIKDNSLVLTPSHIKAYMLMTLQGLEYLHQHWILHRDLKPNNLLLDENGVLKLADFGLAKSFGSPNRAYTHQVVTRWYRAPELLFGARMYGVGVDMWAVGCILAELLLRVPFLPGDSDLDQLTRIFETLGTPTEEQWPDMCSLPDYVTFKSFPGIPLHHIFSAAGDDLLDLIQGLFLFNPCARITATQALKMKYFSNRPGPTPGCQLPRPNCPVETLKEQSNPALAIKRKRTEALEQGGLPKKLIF
CDK7, sequence (P51946 whole entry partner, species assumed): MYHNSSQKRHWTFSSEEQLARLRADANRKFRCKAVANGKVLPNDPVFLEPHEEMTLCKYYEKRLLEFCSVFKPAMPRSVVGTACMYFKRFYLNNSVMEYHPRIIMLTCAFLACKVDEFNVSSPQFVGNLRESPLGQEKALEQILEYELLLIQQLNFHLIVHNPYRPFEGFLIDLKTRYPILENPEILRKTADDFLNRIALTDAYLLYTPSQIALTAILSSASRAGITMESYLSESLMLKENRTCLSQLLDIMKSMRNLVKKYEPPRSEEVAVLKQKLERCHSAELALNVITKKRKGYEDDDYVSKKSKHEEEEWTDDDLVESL
CDK7, sequence (P51948 whole entry partner, species assumed): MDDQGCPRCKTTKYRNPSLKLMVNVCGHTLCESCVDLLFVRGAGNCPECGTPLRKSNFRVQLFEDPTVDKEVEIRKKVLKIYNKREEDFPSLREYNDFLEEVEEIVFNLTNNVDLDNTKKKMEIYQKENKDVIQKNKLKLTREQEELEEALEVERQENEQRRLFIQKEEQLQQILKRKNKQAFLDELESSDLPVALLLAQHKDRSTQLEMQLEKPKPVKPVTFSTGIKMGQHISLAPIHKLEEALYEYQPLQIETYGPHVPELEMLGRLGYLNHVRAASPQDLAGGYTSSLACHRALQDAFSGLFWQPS

As usually defined, the pIC50 is the IC50 on a negative log10 scale, so that one unit is a factor of ten. As for `CCCn1cc(-c2ccnc(Nc3ccc(C)c(S(=O)(=O)N4CCOCC4)c3)n2)c2ccncc21` [Compound 102, N-(4-Methyl-3-(morpholinosulfonyl)phenyl)-4-(1-propyl-1H-pyrrolo[2,3-c]pyridin-3-yl)pyrimidin-2-amine], in data set [1], the pIC50 was 9.40.
As for `CCCn1cc(-c2ccnc(Nc3ccc(S(N)(=O)=O)cc3)n2)c2nc(Cl)cc(C)c21` [SG54], the negative logarithm of the IC50 (pIC50) in data set [2] was 7.24; in data set [3], less than 5.00; in data set [4] it was less than 5.00; in data set [5], less than 5.00.
For `CCCn1cc(-c2ccnc(Nc3ccc(C)c(S(=O)(=O)N4CCOCC4)c3)n2)c2cccnc21` [Compound 24, N-(4-Methyl-3-(morpholinosulfonyl)phenyl)-4-(1-propyl-1H-pyrrolo[2,3-b]pyridin-3-yl)pyrimidin-2-amine], the negative-log IC50 (pIC50) in data set [1] was 6.00.
As for `CCCn1cc(-c2ccnc(Nc3cccc(S(N)(=O)=O)c3)n2)c2ccncc21` [SG51], the negative logarithm of the IC50 (pIC50) is 9.22 in data set [2], 7.37 in data set [3], 6.70 in data set [4] and 8.80 in data set [5].
In the case of `CCCn1cc(-c2ccnc(Nc3cccc(S(N)(=O)=O)c3)n2)c2ccncc21` [Compound 111, 3-(4-(1-Propyl-1H-pyrrolo[2,3-c]pyridin-3-yl)pyrimidin-2-ylamino)benzenesulfonamide], in data set [1], the pIC50 is 9.22.
Regarding `CCCn1cc(-c2ccnc(Nc3ccc(C)c(S(=O)(=O)N4CCOCC4)c3)n2)c2ccncc21` [SG52], the pIC50 in data set [2] is 9.40; in data set [3], 5.71; in data set [4], 5.41; in data set [5], less than 5.00.
By AUC(0-inf) is commonly meant total exposure, with the tail of the curve extrapolated. A high value points to high exposure. As a reminder, the AUC(0-t) is exposure summed from dosing to a finite time, without extrapolation to infinity. A low value points to low exposure. Broadly, the Cmax is the maximum level reached in the sampled fluid or tissue. One may read the Tmax as the time from dosing to the highest level. As a reminder, the half-life is the time in which the quantity being followed falls by half. Low readings indicate fast loss, high ones slow loss. In the case of `CCn1cc(-c2ccnc(Nc3cccc(S(N)(=O)=O)c3)n2)c2cccnc21` [Compound 18, 3-(4-(1-Ethyl-1H-pyrrolo[2,3-b]pyridin-3-yl)pyrimidin-2-ylamino)benzenesulfonamide], the pIC50 in data set [1] was 7.85. In data set [6] (PO (20 mg/kg) vs IV (5 mg/kg)), the “F*” value was 67.51%. In data set [6] (setting [8]), the AUC(0-inf) stood at 545 ng·h/mL, the exposure AUC(0-t) came out at 543 ng·h/mL, the highest concentration (Cmax) is 963 ng/mL and the time of peak concentration (Tmax) was 4.98 min. Besides, in data set [6] (setting [8]), the clearance was 156 mL/min/kg, the half-life is 42 min and the MRT inf came to 40.2 min. In data set [6] (male, Sprague-Dawley, plasma, IV (5 mg/kg), read-out: Vz), the Vd is 9.6 L/kg. Further, in data set [6] (setting [9]), the AUC(0-inf) came to 1490 ng·h/mL, the area under the curve AUC(0-t) worked out at 1470 ng·h/mL, the peak concentration (Cmax) was 895 ng/mL and the Tmax is 34.8 min. Besides, in data set [6] (setting [9]), the half-life was 74.4 min and the MRT inf amounted to 100 min. In data set [6] (oral administration), the “oral availability and t 1/2 after oral administration (in words)” value is “This result showed that compound 18 has good oral availability and t 1/2 after oral administration”. The “% Tumor Growth Inhibition at Day 21” value in data set [7] (20 mg/kg) is on record as 41.3%. Besides, the “% Tumor Growth Inhibition at Day 21” value in data set [7] (150 mg/kg) is reported as 56.5%. Also, in data set [2], the pIC50 was 7.89. Also, the pIC50 in data set [3] was 6.84. Besides, the negative logarithm of the IC50 (pIC50) in data set [4] is 5.98.
Consider `CCCn1cc(-c2ccnc(Nc3cccc(S(N)(=O)=O)c3)n2)c2nc(Cl)cc(C)c21` [SG53], for which the pIC50 in data set [2] is 7.39; in data set [3], less than 5.00; in data set [4], less than 5.00; in data set [5] it was less than 5.00.
In the case of `CCCn1cc(-c2ccnc(Nc3ccc(O)cc3)n2)c2cccnc21` [Compound 15, 4-(4-(1-Propyl-1H-pyrrolo[2,3-b]pyridin-3-yl)pyrimidin-2-ylamino)phenol], the negative logarithm of the IC50 (pIC50) in data set [1] is 5.85.
On to `CCCn1cc(-c2ccnc(Nc3cccc(S(N)(=O)=O)c3)n2)c2ccnc(Cl)c21` [Compound 96, 3-(4-(7-chloro-1-propyl-1H-pyrrolo[2,3-c]pyridin-3-yl)pyrimidin-2-ylamino)benzenesulfonamide], for which the negative logarithm of the IC50 (pIC50) in data set [1] is 8.07.
The same measure, in the same setting: to `CCn1cc(-c2ccnc(Nc3cccc(C#N)c3)n2)c2cccnc21` [Compound 20, 3-(4-(1-Ethyl-1H-pyrrolo[2,3-b]pyridin-3-yl)pyrimidin-2-ylamino)benzonitrile] belongs 6.82.
As for `CCCn1cc(-c2ccnc(Nc3cccc(O)c3)n2)c2cccnc21` [Compound 16, 3-(4-(1-Propyl-1H-pyrrolo[2,3-b]pyridin-3-yl)pyrimidin-2-ylamino)phenol], the pIC50 in data set [1] was 6.85.
As to `CCCn1cc(-c2ccnc(Nc3cccc(S(N)(=O)=O)c3)n2)c2cccnc21` [Compound 22, 3-(4-(1-Propyl-1H-pyrrolo[2,3-b]pyridin-3-yl)pyrimidin-2-ylamino)benzenesulfonamide], the negative logarithm of the IC50 (pIC50) in data set [1] was 7.01.
As for `CCCn1cc(-c2ccnc(Nc3cccc(S(N)(=O)=O)c3)n2)c2nc(Cl)cc(C)c21` [Compound 42, 3-(4-(5-Chloro-7-methyl-1-propyl-1H-pyrrolo[3,2-b]pyridin-3-yl)pyrimidin-2-ylamino)benzenesulfonamide], the pIC50 in data set [1] was 7.39.
Consider `CCCn1cc(-c2ccnc(Nc3ccc(S(N)(=O)=O)cc3)n2)c2ccncc21` [Compound 112, 4-(4-(1-Propyl-1H-pyrrolo[2,3-c]pyridin-3-yl)pyrimidin-2-ylamino)benzenesulfonamide], for which the pIC50 in data set [1] is 9.15.
